Reference: patent publication US20080274208A1, “Water treatment containing DBNPA for use in sanitizing recreational water” (priority 2007, published 2008)

Legend:
[1] = test system: eight species of bacteria typically found in swimming pool water; experiment: Model swimming pool system: viable bacteria by agar plate counts (CLED agar); type: cell-based, Alcaligenes, Chryseobacterium and Sphingomonas; conditions: Table 1; upon exceeding turbidity threshold (or at test end); DBNPA 2 ppm daily with/without oxidizer; PHMB 6 ppm
Experimental: (§1) The synthetic swimming pool water samples dosed with combinations of DBNPA, hydrogen peroxide, potassium monopersulfate and/or DDAC were compared to the performance of the commercially available Baquacil® swimming pool chemical treatment system (available commercially from Arch Chemicals, Inc., Norwalk, Conn.). […] PHMB), by addition of daily or weekly doses of the biocide. Hydrogen peroxide is added monthly at a concentration of 27.5 ppm. The samples were challenged on a daily basis with eight species of bacteria and four species of fungi typically found in swimming pool water. These microorganisms include species of the fungi Paecilomyces and Trichoderma, and species of the bacteria Alcaligenes, Chryseobacterium and Sphingomonas. Each inoculation represents a total addition of 0.8×10^6 microorganisms per model apparatus. In addition, 5 ml of synthetic bather load is added to the system on a daily basis, as a nutrient source for the microorganisms present in the system. The bather load consists of carbon, nitrogen and macro/micro nutrient sources such as urea, albumin, creatinine, lactic acid, uric acid, glucuronic acid, sodium chloride, sodium sulfate, ammonium chloride, sodium bicarbonate, potassium phosphate potassium sulfate. The total number of viable bacteria and fungi present in each sample was determined weekly by conducting agar plate counts. […]

[2] = test system: four species of fungi typically found in swimming pool water; experiment: Model swimming pool system: viable fungi by agar plate counts (Sabaroud-Dextrose agar); type: cell-based, Paecilomyces and Trichoderma; conditions: Table 1; upon exceeding turbidity threshold (or at test end); DBNPA 2 ppm daily with/without oxidizer; PHMB 6 ppm
Experimental: as §1

[3] = test system: eight species of bacteria and four species of fungi typically found in swimming pool water; experiment: Model swimming pool recirculating sand filter system: water clarity (turbidity) under daily microbial challenge; type: cell-based; conditions: Table 1; synthetic pool water 80-90° F, daily inoculation and bather load; DBNPA 2 ppm daily; H2O2 27.5 ppm start, 7 ppm weekly; potassium monopersulfate 12 ppm initial and weekly; PHMB 6 ppm; 88 day test
Experimental: The purpose of this experiment is to evaluate the robustness or the ability of single or combinations of biocides (plus additionally any other permutations of oxidizers and/or adjuvants) to prevent inoculated microorganisms from establishing colonies in the water and sand filter media, thus preventing bio-fouling of the system.
800 ml of synthetic swimming pool water (water containing calcium chloride dihydrate and sodium hydrogen carbonate solution at neutral pH) was pumped through a body of swimming pool filter sand by means of a peristaltic pump. The water temperature of each system was maintained in the range of 80-90° F. The biocide 2,2-dibromo-3-nitrilopropionamide (DBNPA) was added daily at a concentration of 2 ppm. When required, oxidizer hydrogen peroxide was added at a concentration of 27.5 ppm at the start of experiment, and 7 ppm weekly thereafter, and the loss of hydrogen peroxide in each system is monitored by calorimetric assay. […]
Model water turbidity was measured on a daily basis) using a Hach 2100P turbidimeter to measure water sample nephelometric turbidity units (NTUs). […]
The performance of the candidate treatment regimens was determined by the number of days the water clarity was maintained below 1.0 NTU (Nephelometric Turbidity Units). […]

N#CC(Br)(Br)C(N)=O [DBNPA, 2,2-dibromo-3-nitrilopropionamide]
Bacterial Counts at Clarity of 1.0 NTU or above [1]: 1.39 × 10^5 CFU/ml
Fungal Counts at Clarity of 1.0 NTU or above [2]: 5 × 10^0 CFU/ml
Number of Days of Clarity below 1.0 NTU [3]: 59 days
